Measured values as given in patent US20100261666A1, “COMPOSITIONS AND METHODS FOR THE TREATMENT OF MYOCARDIAL DYSFUNCTION ASSOCIATED WITH SIRS OR SEPSIS” (THE BOARD OF TRUSTEES OF THE UNIVERSITY OF ILLINOIS, priority 2009, published 2010).
Where two headings read alike, the source gives them in different places.

Tests used:
ADA = ADA (Homo sapiens, UniProt P00813); details: cited from earlier work
rat isolated hearts = experiment: Langendorff rat isolated heart procedure: left ventricular function and coronary flow; format: in vivo; details: for Coronary flow Baseline / Coronary flow 30 min / Coronary flow 60 min / Coronary flow 90 min / Coronary flow 120 min / Coronary flow 150 min: mean ± SEM
Method: Male Sprague Dawley, virus-free rats (Harlan) were used in each of the examples presented herein. After arrival and a brief acclimation (72 hours minimum), animals were randomized into control or experimental groups. The control and experimental protocols (Table 1) and experimental group treatments (Table 2) are described below.
Rat isolated heart experiments were performed via Langendorff method. […] CON hearts received vehicle (IP sterile water). […] Heparin was allowed to circulate for 60 seconds at which time a thoracotomy was performed to expose the heart. The heart was quickly removed, placed in ice cold Krebs-Ringers bicarbonate buffer (KRB, described below) and weighed. The ascending aorta was rapidly cannulated and the heart was attached, via the cannula, to the perfusion apparatus. The hearts were perfused with a modified KRB containing (102 mM NaCl, 4.75 mM KCl, 1.20 mM KH2PO4, 1.18 mM MgSO4, 22.75 mM NaHCO3, 11.50 mM Glucose, 4.96 mM Na-Pyruvate, 5.40 mM Na-Fumarate and 1 mM CaCl2), at a temperature of 37.0° C., and pH 7.4 as maintained by vigorous bubbling with 95%/5% O2/CO2.
At all times, hearts were perfused with KRB at a pressure of 72-78 mmHg set by the height of the water-jacketed reservoir. The left atrium of the heart was then removed, just above the left atrio-ventricular valve. A latex balloon was used to measure left ventricular pressure as an index of cardiac performance. The balloon was constructed by filling the reservoir tip of a latex condom with degassed water. PE-50 tubing, pre-filled with degassed water and attached to a stopcock/Hamilton screw-top syringe assembly, was flanged and placed into the tip of the condom. Surgical silk (5-0) was used to gather the condom tip around the flanged end of the tubing and form a seal, at which time the excess latex was removed.
The balloon/stopcock assembly was attached to a pressure transducer (Spectramed-Statham) and inserted into the left ventricle to record cardiac performance data via Windaq (DATAQ, CA). Two platinum electrodes, connected to a electrical stimulator (Grass Model 92C), were placed at the lateral edges of the right atria in order to pace the heart at 300 BPM using a voltage 10% greater than that required to capture rhythm. The volume in the latex balloon was increased to produce a left ventricular diastolic pressure (LVdiaP) of 10.0 mmHg.
The heart was then perfused normally for 30 minutes, a period designated as the equilibration phase. During this phase of perfusion hearts had to maintain a LVdiaP of 10.0±2.0 mmHg to be included in the study. At the end of thirty minutes, baseline measurements of coronary flow and left ventricular pressure were made. This time point was designated as 0 minutes. At this time, hearts receiving LPS (10 μg/mL/min) were infused via injection port/stop cock assembly, into the KRB perfusion stream, just above the aortic cannula for a total infusion time of 60 minutes. Hearts not receiving LPS were infused with vehicle (sterile water, 1.25% coronary flow (mL)·min). At 60 minutes, infusion was halted and normal KRB perfusion continued for 90 minutes (total experimental time post-equilibration=150 minutes).
Measurements of coronary flow and left ventricular pressure were taken every 30 minutes starting at 0 minutes. At the termination of the experiment, the left ventricle was rapidly excised from the whole heart, flash frozen in liquid nitrogen and stored at −80.0° C. for further analysis.
Statistical analysis was performed on data generated from these experimental protocols using a one-way analysis of variance (one-way ANOVA) with pair wise comparisons (Fisher Least Significant Difference test (LSD)). Data is presented herein as mean±standard error of the mean (SEM).
The Fisher LSD was used to determine whether 30 and 150 min values differed from baseline values. In addition, changes from baseline values (e.g., 30 or 150 minute value−respective baseline value) were compared among groups.

adenosine deaminase = adenosine deaminase (Rattus norvegicus, UniProt Q920P6); details: LV tissue homogenates at 150 minute time point
Sequence of adenosine deaminase (Q920P6 whole entry): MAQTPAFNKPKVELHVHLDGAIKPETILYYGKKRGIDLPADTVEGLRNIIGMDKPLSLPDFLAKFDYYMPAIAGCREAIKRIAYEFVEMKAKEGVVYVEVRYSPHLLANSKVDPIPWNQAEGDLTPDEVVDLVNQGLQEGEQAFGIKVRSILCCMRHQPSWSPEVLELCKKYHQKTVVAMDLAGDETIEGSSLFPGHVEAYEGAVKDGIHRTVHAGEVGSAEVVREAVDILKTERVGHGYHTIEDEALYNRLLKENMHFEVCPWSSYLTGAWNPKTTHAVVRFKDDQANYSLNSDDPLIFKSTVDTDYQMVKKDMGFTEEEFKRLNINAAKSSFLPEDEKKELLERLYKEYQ
Method: Assays were performed according to the manufacturer's instructions.

[1] = LPS infusion 10 μg/mL/min (-LPS group)
[2] = LPS infusion, 30 minutes, change from baseline, mean±SEM

Sequence of ADA (P00813 whole entry, species assumed): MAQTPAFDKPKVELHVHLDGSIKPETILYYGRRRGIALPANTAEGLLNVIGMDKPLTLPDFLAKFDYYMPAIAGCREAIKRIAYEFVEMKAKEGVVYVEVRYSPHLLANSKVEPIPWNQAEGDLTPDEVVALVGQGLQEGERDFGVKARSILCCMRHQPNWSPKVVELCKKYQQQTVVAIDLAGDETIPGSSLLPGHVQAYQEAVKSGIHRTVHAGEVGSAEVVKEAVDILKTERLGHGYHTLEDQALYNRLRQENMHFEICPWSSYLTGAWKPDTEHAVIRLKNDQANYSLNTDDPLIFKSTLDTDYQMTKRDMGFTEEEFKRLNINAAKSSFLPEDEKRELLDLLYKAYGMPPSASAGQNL

| Structure (SMILES) | Coronary flow Baseline (rat isolated hearts; [1]) [mL/min] | Coronary flow 30 min (rat isolated hearts; LPS infusion (-LPS group)) [mL/min] | Coronary flow 60 min (rat isolated hearts; LPS infusion (-LPS group)) [mL/min] | Coronary flow 90 min (rat isolated hearts; LPS infusion (-LPS group)) [mL/min] | Coronary flow 120 min (rat isolated hearts; LPS infusion (-LPS group)) [mL/min] | Coronary flow 150 min (rat isolated hearts; LPS infusion (-LPS group)) [mL/min] | +dP/dt compared to respective baseline (rat isolated hearts; LPS infusion, 30 minutes) | LV developed pressure compared to respective baseline (rat isolated hearts; LPS infusion, 30 minutes) | LV diastolic pressure compared to respective baseline (rat isolated hearts; LPS infusion, 30 minutes) | increase in LV developed pressure compared to LPS group (rat isolated hearts; LPS infusion, 30 minutes) | increase in LV systolic pressure compared to LPS group (rat isolated hearts; LPS infusion, 30 minutes) | increase in −dP/dt compared to LPS group (rat isolated hearts; LPS infusion, 30 minutes) | +dP/dt compared to LPS hearts (rat isolated hearts; LPS infusion, 150 minutes) | LV developed pressure compared to LPS hearts (rat isolated hearts; LPS infusion, 150 minutes) | LV developed pressure compared to respective baseline (rat isolated hearts; LPS infusion, 150 minutes) | LV diastolic pressure (LPS-induced increase) compared to LPS hearts (rat isolated hearts; LPS infusion, 150 minutes) | −dP/dt compared to LPS alone / among groups (rat isolated hearts; LPS infusion, 150 minutes) | −dP/dt compared to respective baseline (rat isolated hearts; LPS infusion, 150 minutes) | Coronary flow 30 min (rat isolated hearts; vehicle infusion (-CON group)) [mL/min] | Coronary flow 60 min (rat isolated hearts; vehicle infusion (-CON group)) [mL/min] | other results |
| --- | --- | --- | --- | --- | --- | --- | --- | --- | --- | --- | --- | --- | --- | --- | --- | --- | --- | --- | --- | --- | --- |
| OC[C@H]1O[C@@H](n2cnc3c2N=CNCC3O)CC1O (stereo in doubt) [dCF, 2′-deoxycoformycin] | 27.4 ± 1.7 | 28.7 ± 1.2 | 27.8 ± 1.2 | 25.7 ± 1.0 | 22.4 ± 1.1 | 19.6 ± 0.8 | significantly greater | significantly increased | significantly lower | similar | similar | similar | improved | improved | not significantly different | improved | No significant differences | significantly lower | 27.7 ± 1.9 | 26.3 ± 2.1 | binding between dCF and ADA (ADA): effectively irreversible; LV systolic pressure compared to respective baseline (rat isolated hearts; LPS infusion, 30 minutes): significantly greater; −dP/dt compared to respective baseline (rat isolated hearts; LPS infusion, 30 minutes): significantly greater; increase in LV developed pressure (rat isolated hearts; [2]): 20.1±3.2 mmHg; increase in LV systolic pressure (rat isolated hearts; [2]): 17.1±3.0 mmHg; +dP/dt compared to CON (rat isolated hearts; LPS infusion, 150 minutes): No differences; LV developed pressure compared to CON (rat isolated hearts; LPS infusion, 150 minutes): No differences; LV systolic pressure compared to LPS group / among groups (rat isolated hearts; LPS infusion, 150 minutes): no significant differences; Coronary flow 90 min (rat isolated hearts; vehicle infusion (-CON group)): 24.5 ± 1.8 mL/min; Coronary flow 120 min (rat isolated hearts; vehicle infusion (-CON group)): 21.5 ± 1.9 mL/min; Coronary flow 150 min (rat isolated hearts; vehicle infusion (-CON group)): 19.8 ± 2.0 mL/min; Coronary flow Baseline (rat isolated hearts; vehicle infusion (-CON group)): 28.1 ± 1.9 mL/min; +dP/dt compared to respective baseline (rat isolated hearts; vehicle infusion, 30 minutes): no differences; LV diastolic pressure compared to respective baseline (rat isolated hearts; vehicle infusion, 30 minutes): significantly lower; −dP/dt compared to respective baseline (rat isolated hearts; vehicle infusion, 30 minutes): no differences; LV developed pressure compared to respective baseline (rat isolated hearts; vehicle infusion, 150 minutes): not significantly different; −dP/dt compared to respective baseline (rat isolated hearts; vehicle infusion, 150 minutes): significantly lower; LV ADA activity compared to CON and LPS hearts (adenosine deaminase; LPS infusion): significant decrease; LV ADA activity compared to CON and LPS hearts (adenosine deaminase; vehicle infusion): significant decrease |
| Oc1ncnc2[nH]ncc12 [ALO, allopurinol] | 24.1 ± 1.3 | 24.2 ± 1.1 | 24.7 ± 1.4 | 24.5 ± 1.4 | 23.4 ± 1.7 | 22.5 ± 1.7 | significantly greater | significantly greater | significantly decreased | of a similar magnitude | of a similar magnitude | similar | did not statistically change | of a similar magnitude | significantly decreased | attenuation | did not significantly affect | significantly decreased | 25.9 ± 1.8 | 25.1 ± 1.9 | +dP/dt compared to respective baseline (rat isolated hearts; LPS infusion, 150 minutes): significantly decreased; LV systolic pressure compared to respective baseline (rat isolated hearts; LPS infusion, 150 minutes): significantly decreased; Coronary flow 90 min (rat isolated hearts; vehicle infusion (-CON group)): 24.7 ± 1.9 mL/min; Coronary flow 120 min (rat isolated hearts; vehicle infusion (-CON group)): 24.1 ± 1.6 mL/min; Coronary flow 150 min (rat isolated hearts; vehicle infusion (-CON group)): 22.6 ± 1.4 mL/min; Coronary flow Baseline (rat isolated hearts; vehicle infusion (-CON group)): 25.4 ± 2.1 mL/min; LV diastolic pressure compared to respective baseline (rat isolated hearts; vehicle infusion, 30 minutes): No changes; LV developed pressure compared to respective baseline (rat isolated hearts; vehicle infusion, 150 minutes): No changes; LV diastolic pressure compared to respective baseline (rat isolated hearts; vehicle infusion, 150 minutes): remained unchanged; LV systolic pressure compared to respective baseline (rat isolated hearts; vehicle infusion, 150 minutes): no change; −dP/dt compared to respective baseline (rat isolated hearts; vehicle infusion, 150 minutes): remained unchanged |
